“And” between values parts separate entries of the source, which are not always exact repeats. Identical values can stand only once.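 Cells were grown in 96-well plates and exposed to each compound for 48 hours at five concentrations; endpoints were interpolated linearly between bracketing concentrations, or set to the highest concentration if not reached. At the GI50, growth is halved. The concentration for full growth arrest is given as TGI.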

Experimental findings from PubChem BioAssay (NCI) are described below.

Experiment in all cases: NCI-60 cell line screen, 48 h
In assay [1] the test system is K-562 leukemia.
Assay [2] relates to HOP-62 NSCLC.
The test system of assay [3] is UACC-257 melanoma.
Assay [4] has as its system A549 NSCLC.
The test system of assay [5] is 786-0 renal.
Assay [6] concerns SN12C renal.
For assay [7], the system named is SF-539 CNS.
The subject of assay [8] is IGROV1 ovarian.
For assay [9], the system named is OVCAR-3 ovarian.
Assay [10] relates to UO-31 renal.

As to `Cc1c(N=Nc2ccc([N+](=O)[O-])cc2)nc2scc(-c3ccccc3)n12`, the TGI in assay [1], in [2], in [3], in assay [4], in assay [5] and in assay [6] was more than 100 µM each time. In addition, the TGI in assay [7], in [8], in assay [9] and in [10] was more than 100 µM in each case.
On to `CC(CN(CP(=O)([O-])[O-])CP(=O)([O-])[O-])N(CP(=O)([O-])[O-])CP(=O)([O-])[O-].N.N.[Pt+2]` (configuration not stated), for which the GI50 in assay [1], in [2], in assay [3], in assay [4], in assay [5] and in assay [6] was more than 100 µM each time. Also, the GI50 in [7], in assay [8], in assay [9] and in assay [10] was more than 100 µM each time. Further, the TGI in assay [1], in assay [2], in assay [3], in assay [4], in assay [5] and in assay [6] was more than 100 µM in each case. The TGI in [7], in [8], in assay [9] and in assay [10] was more than 100 µM each time.
As for `CC1OC(n2ncc(=O)[nH]c2=O)C=CC1=O` (configuration not stated), the TGI in [1], in assay [2], in assay [3], in assay [4], in assay [5] and in [6] was more than 100 µM each time. Also, the TGI in assay [7] was > 100 µM and 47.9 µM; in assay [8], more than 100 µM; in assay [9] it was more than 100 µM; in [10], more than 100 µM. In addition, the GI50 is > 100 µM and 42.1 µM in [2]; 37 µM in assay [3].
For `CC1=C([Se]CC(OC(=O)CC[Se]c2ccccc2)C(=O)NCCCCCC(=O)OCc2ccccc2)C(=O)c2ccccc2C1=O` (configuration not stated), the GI50 in [1] was 3.31 µM; in assay [2], 1.87 µM; in assay [3], 2.78 µM; in [4], 2.56 µM; in [5], 3.18 µM; in [6], 3.25 µM. Moreover, the GI50 is 2.36 µM in assay [7], 1.31 µM in [8], 1.83 µM in [9] and 2.07 µM in assay [10]. Also, the TGI in assay [1] is 23.7 µM; in assay [2], 4.32 µM; in [3], 7.9 µM; in assay [4] it was 6.72 µM; in [5], 8.36 µM; in [6] it was 14.3 µM. Also, the TGI in assay [7] is 6.03 µM; in assay [8] it was 4.11 µM; in assay [9], 4.71 µM; in assay [10], 7.41 µM.
As to `O=C1NC(=S)NC(=O)C1=Cc1cc2c(cc1[N+](=O)[O-])OCO2`, the TGI in assay [1], in assay [2], in assay [3], in [4], in [5] and in [6] was more than 100 µM each time. For the same compound, the TGI in [7], in assay [8], in [9] and in assay [10] was more than 100 µM each time.
In the case of `COc1cc2oc(=O)ccc2cc1C1OC(=O)C2OC21C` (configuration not stated), the TGI in assay [1], in [2], in assay [3], in [4], in [5] and in [6] was more than 100 µM throughout. Further, the TGI in assay [7], in assay [8], in [9] and in [10] was more than 100 µM throughout.
Take `O=C(/C=C/c1ccc(OCC(=O)N2CCN(c3ccccc3)CC2)cc1)c1ccc(Cl)cc1`: the TGI in assay [1] was more than 100 µM; in assay [2] it was 55.3 µM; in assay [3], more than 100 µM; in assay [4] it was more than 100 µM; in [5], 73.7 µM; in assay [6], more than 100 µM. In addition, the TGI was 56.6 µM in assay [7], more than 100 µM in [8], more than 100 µM in assay [9] and more than 97.2 µM in assay [10].
For the compound `O=C1C=C[C@@]23CC1C(O)C[C@H]2C=Cc1ccccc13` (some centres not stated), the TGI in [1], in assay [2], in [3], in [4], in assay [5] and in assay [6] was more than 100 µM throughout. In addition, the TGI in assay [7], in assay [8], in [9] and in assay [10] was more than 100 µM in each case.
Consider `C/C(=N/S(=O)(=O)c1ccc(Cl)c(Cl)c1)OCC(C)(C)C`, for which the TGI in [1], in [2], in assay [3], in [4], in [5] and in assay [6] was more than 100 µM throughout. Further, the TGI in [7], in assay [8], in assay [9] and in assay [10] was more than 100 µM in each case.
As to `Cc1cccc(C(C)(C)C)c1NC(=O)C(=O)C(C(=O)/C=C\c1ccccc1)C1OC(=O)c2ccccc21` (configuration not stated), the TGI in assay [1], in [2], in assay [3], in [4], in [5] and in assay [6] was more than 100 µM each time. Further, the TGI in assay [7], in [8], in [9] and in assay [10] was more than 100 µM each time.
As to `CC12CCC3C(CC=C4CC(O)CCC43C)C1C/C(=C\N1CCCC1)C2=O` (configuration not stated), the GI50 is 55.8 µM in assay [1]; more than 100 µM in assay [2]; more than 100 µM in [3]; more than 100 µM in assay [4]; more than 100 µM in assay [5]; 85 µM in assay [6]. In addition, the GI50 is more than 100 µM in assay [7], 51.8 µM in assay [8], 42.6 µM in [9] and 67.2 µM in [10]. The TGI in [1], in assay [2], in assay [3], in [4], in assay [5] and in [6] was more than 100 µM throughout. In addition, the TGI in [7], in assay [8], in assay [9] and in [10] was more than 100 µM each time.
